Source: US20070010484A1, “Method for treating or inhibiting the effects of injuries or diseases that result in neuronal degeneration and method for promoting neurogenesis” (YEDA RESEARCH AND DEVELOPMENT CO. LTD., priority 2003, published 2007)

How the values were obtained:
PC12 cells = assay: Neurite outgrowth assay in NGF-stimulated PC12 cells; type: cell-based, rat; conditions: PC12 cells on collagen, NGF 10 ng/ml, sulfated CSPG-DSs added; mean±SD
Protocol: PC12 cell line: Rat pheochromocytoma (PC12) cells were cultured in DMEM containing 8% horse serum and either 8% FCS (culture medium) or 1% FCS (differentiation medium), and antibiotics. For assays of neurite outgrowth, the cells were plated (10^5 cell/well) on 13-mm glass coverslips, precoated with collagen (500 μg/ml) in 24-well plates. Neurite outgrowth assays: PC12 cells were cultured for 24-72 h while being stimulated with 10 ng/ml NGF, with or without CSPG-DSs. Cell morphology was visualized under a phase-contrast microscope and neurite lengths were measured using ImagePro. At least 200 cells were measured for each condition.

human T cells = assay: T-cell adhesion to fibronectin in presence of SDF-1α; type: cell-based; conditions: 2 h pretreatment prior to SDF-1α, FN-coated plates, relative to untreated T cells
Protocol: Human T cells. T cells from the peripheral blood of healthy donors were isolated by negative selection using a RosetteSep™ antibody cocktail containing mabs against CD16, CD19, CD36, and CD56 (StemCell Technologies, Vancouver, BC). After incubation with the cocktail for 20 min at room temperature, blood samples were diluted in PBS with 2% fetal bovine serum, loaded on a Ficoll column (ICN Biomedical, Aurora, Ohio), and centrifuged at 1200× g for 20 min at room temperature. The cells were removed from the Ficoll column, washed, and cultured in RPMI containing antibiotics and 10% heat-inactivated FCS. T-cell adhesion assays. Adhesion of T cells to FN was assayed as described (Ariel et al., 1998). Briefly, flat-bottomed microtiter well plates were precoated with CSPG or FN (10 μg/ml) and the remaining binding sites were blocked with 1% BSA. […]-labeled T cells were resuspended in RPMI medium supplemented with 1% HEPES buffer and 0.1% BSA (adhesion medium). After preincubation 2 h with CSPG-DS at the indicated concentrations, the T cells were incubated (30 min, 37° C., humidified atmosphere of 7% CO2 in air) with SDF-1α and then added to the wells. […] Adherent cells were lysed with lysis buffer (1 M NaOH, 0.1% Triton X-100 in H2O), removed, and counted with a γ-counter (Packard, Downers Grove, Ill.).

IFN-γ = IFN-γ secretion by anti-CD3-activated T cells, ELISA; type: cell-based, human; conditions: 2 h pretreatment, then anti-CD3 activation 24 h
Protocol: Assay of IFN-γ secretion. Human T cells were purified and maintained in culture (RPMI containing 10% FCS, 1% pyruvate, 1% glutamine, 1% antibiotics, in a humidified atmosphere of 7% CO2in air), and the cells were activated for 2 h with the indicated concentrations of CSPG-DS. In order to stimulate the cells to secrete cytokines, they were replated (1×10^6 cells in 0.5 ml culture medium per well) in 24-well plates precoated with 1 μg/ml immobilized anti-CD3 mAb (non-tissue-culture grade). After 24 h the supernatants were collected and their IFN-γ contents determined by ELISA, using anti-IFN-γ mAb (Pharmingen, San Diego, Calif.) according to the manufacturer's instructions.

IL-4 and IL-13 = assay: RT-PCR of IL-4 and IL-13 mRNA in activated T cells; type: cell-based, human; conditions: 2 h pretreatment, anti-CD3 activation 3 h; similar after 6 or 12 h
Protocol: RNA purification, RT-PCR, and CDNA synthesis. After pretreatment with the indicated concentrations of CSPG-DS for 2 h, […], lysed with TRI reagent (MRC, Cincinnati, Ohio), and total cellular RNA was purified from lysates using the RNeasy kit (Qiagen, Hilden, Germany) according to the manufacturer's instructions. RNA was converted to cDNA using SuperScript II (Promega, Madison, Wis.), as recommended by the manufacturer. The expression of specific mRNAs was assayed by RT-PCR, using the messageScreen™ Human Th1/Th2 Cytokine Set 1 Multiplex PCR® kits (BioSource International, Camarillo, Calif.), according to the manufacturer's instructions.

IGF-1 = IGF-1 expression in primary microglial cultures, immunocytochemistry; type: cell-based, C57Bl/6J mice
Protocol: Primary microglial culture. Brains from neonatal (P0-P1) C57Bl/6J mice were stripped of their meninges and minced with scissors under a dissecting microscope (Zeiss, Stemi DV4, Germany) in Leibovitz-15 medium (Biological Industries, Beit Ha-Emek, Israel). After trypsinization (0.5% trypsin, 10 min, 37° C./5% CO2), the tissue was triturated. The cell suspension was washed in culture medium for glial cells (DMEM supplemented with 10% fetal calf serum (FCS; Sigma-Aldrich, Rehovot, Israel), 1-glutamine (1 mM), sodium pyruvate (1 mM), penicillin (100 U/ml), and streptomycin ([…])) and cultured at 37° C./5% CO2 in 75-cm2 Falcon tissue-culture flasks (BD Biosciences) coated with poly-D-lysine (PDL) ([…]; Sigma-Aldrich, Rehovot) in borate buffer (2.37 g borax and 1.55 g boric acid dissolved in 500 ml sterile water, pH 8.4) for 1 h, then rinsed thoroughly with sterile, glass-distilled water. Half of the medium was changed after 6 h in culture and every 2nd day thereafter, starting on day 2, for a total culture time of 10-14 days. […]

CC(=O)N[C@H]1C(O)O[C@H](COS(=O)(=O)O)[C@H](O)[C@@H]1O[C@@H]1OC(C(=O)O)=C[C@H](O)[C@H]1O (stereo partly drawn) [CSPG-DS, 2-acetoamido-2-deoxy-3-O-(β-D-gluco-4-enepyranosyluronic acid)-6-O-sulfo-D-galactose]
mean neurite length (PC12 cells): 107±7.8 μm
T-cell adhesion (human T cells): significantly reduced
secretion of IFN-γ (IFN-γ): significant reduction
mRNA levels of Th2-associated cytokines IL-4 and IL-13 (IL-4 and IL-13): not affected
LPS-induced suppression of IGF-I expression (IGF-1; microglia pre-incubated with CSPG-DS (25 or 50 μg/ml) 1 h, then LPS 24 h): attenuated
IGF-1 expression by microglia (IGF-1; mouse primary microglia): high levels
